Measurements reported in patent US12516060B2, “Solid freebase forms of 5-chloro-2-(4-((2-hydroxy-2-methylpropyl)amino)pyrido[3,4-d]pyridazin-1-yl)phenol for inhibiting NLRP3 and uses thereof” (Ventus Therapeutics U.S., Inc., priority 2023, dated 2026).
“Also recorded” adds a separate entry of the source.

How the values were obtained:
Format in all cases: physicochemical
[1] = Dynamic Vapor Sorption (DVS)
Experimental: DVS was performed using TA Instruments Q5000SA. The sample (5-15 mg) was loaded into a metallic quartz sample pan, suspended from a microbalance, and exposed to a humidified stream of nitrogen gas. Weight changes were relative to a matching empty reference pan opposite the sample, suspended from the microbalance. The sample was held for a minimum of 10 min at each level and only progressed to the next humidity level if there was <0.002% change in weight between measurements (interval: 5 s) or 45 min had elapsed (for 5-65% RH) or 2 h had elapsed (for 80 and 95% RH). Mass change by DVS is related to hygroscopicity.

[2] = Second set of competitive slurry experiments (Form V vs Form I and Form II)
Experimental: A second set of competitive slurry experiments was set up in three solvent systems and two temperatures to assess the relative stability of Form V freebase with respect to Form I freebase and Form II freebase. […] In all samples, the input seed patterns were observed less than 1 min after addition. […] After 7 days, the quantity of Form II freebase remaining in the RT acetonitrile sample was greatly diminished, though Form II freebase was still present in trace quantities.

[3] = Solid form stability studies, 75% RH at 40° C. for one week (XRPD and HPLC)
Experimental: Solid form stability studies were performed on Form I-V freebase forms by weighing approximately 10-15 mg of the crystalline material into 4 mL vials and covering with a lab grade task wipe (Kimwipe). These vials were placed inside a stability chamber set at 75%±5% relative humidity (RH) at 40° C.±2° C., where they were left for one week (7 full days). The retrieved material was then analyzed by XRPD and HPLC. In each case, the initial material and tested material were identical by XRPD, with the exception of Form I freebase, where an extra peak at 5.8 °2θ in the initial material was absent after the stability test. HPLC purities of the tested material were essentially unchanged from those of the initial material.

- DVS mass change 5-95% RH (wt. %) ([1]; 5-95% RH): 0.20 wt. %
- water uptake, weight gain between 5-95% relative humidity (RH) ([1]; DVS, 5-95% RH): about 0.20%
- hygroscopicity ([1]; DVS, all adsorbed water lost during the drying cycle): slightly, hygroscopic
- relative hygroscopicity among the Forms studied by DVS ([1]; Forms I-V): least hygroscopic
- XRPD pre- and post-DVS ([1]; form stability after DVS cycle): remained unchanged
- XRPD (tested material) ([3]; 75% ± 5% RH at 40° C. ± 2° C. for 1 week): Form V
- Purity % a/a (tested material) ([3]; HPLC, after 75% ± 5% RH at 40° C. ± 2° C. for 1 week): 99.60 % a/a
- Purity % a/a (input material) ([3]; HPLC, before stability test): 99.46 % a/a
- solid-form and chemical stability at elevated RH ([3]; one-week at 75% RH and 40° C.): no form change or purity decrease
SMILES: CC(C)(O)CNc1nnc(-c2ccc(Cl)cc2O)c2ccncc12 [Form V freebase, 5-chloro-2-(4-((2-hydroxy-2-methylpropyl)amino)pyrido[3,4-d]pyridazin-1-yl)phenol]
- form observed by XRPD after 3 days ([2]; acetonitrile, MeOH, acetone:water (7:3 vol.), RT and 50° C., 3 days): the sole form observed in all experiments, except in acetonitrile at RT
- relative (thermodynamic) stability vs Form I and Form II ([2]; second set of slurries, various solvent systems): favored over both Form I and II freebase; also recorded: most thermodynamically stable form studied
